This assay has as its target T1, dopamine receptor (Bos taurus, UniProt P20288).
T1 construct: from tissue
Put plainly: 3H-haloperidol receptor binding assay (HRBA). Conditions: for inhibition at 0.01 µM / inhibition at 0.1 µM: read-out: inhibition of 3H-haloperidol binding. The text has this:
The compounds of this invention are useful because of their valuable pharmacological properties. […] As with other known neuroleptics, the compounds of this invention readily displace ^3 H-haloperidol from dopamine receptor binding sights in the ^3 H-haloperidol receptor binding assay (HRBA). […] The HRBA screen is described by I. Creese, D. R. Burt and S. H. Snyder, Science 142: 480 (1976) and by B. Seeman, T. Lee, M. Chani-Wong and K. Wong, Nature 261: 717 […].

Structures are written as SMILES. Where a name gives a salt, the structure may show the parent alone. Read-outs that look alike come from different tables or passages of the source.

T1 sequence (P20288 whole entry): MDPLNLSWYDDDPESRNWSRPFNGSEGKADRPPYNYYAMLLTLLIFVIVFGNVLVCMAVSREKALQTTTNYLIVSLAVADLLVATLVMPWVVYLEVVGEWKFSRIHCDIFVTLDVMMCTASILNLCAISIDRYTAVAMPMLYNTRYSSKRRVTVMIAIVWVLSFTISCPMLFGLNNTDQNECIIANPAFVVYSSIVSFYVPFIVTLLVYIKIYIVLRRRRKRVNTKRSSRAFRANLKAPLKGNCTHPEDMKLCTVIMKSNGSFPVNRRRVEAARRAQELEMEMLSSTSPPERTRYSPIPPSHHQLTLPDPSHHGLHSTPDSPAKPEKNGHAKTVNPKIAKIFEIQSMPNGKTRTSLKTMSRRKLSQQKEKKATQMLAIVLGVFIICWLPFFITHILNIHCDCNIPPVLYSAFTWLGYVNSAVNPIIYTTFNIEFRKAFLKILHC

The term inhibition denotes the relative decrease from the control value, in per cent. With `COc1ccccc1N1CCN(CCCN(c2ccc(F)cc2)c2ccc(F)cc2)CC1` [Example 35, N,N-bis(4-fluorophenyl)-4-(2-methoxyphenyl)-1-piperazinepropanamine dihydrochloride], the inhibition at 0.01 µM was about 28% and the inhibition at 0.1 µM was about 79%.
The matching figures for `OCCN1CCN(CCCN(c2ccc(F)cc2)c2ccc(F)cc2)CC1` [Example 36, 4-[3-[Bis(4-fluorophenyl)amino]propyl]-1-piperazineethanol dihydrochloride]: about 21% and about 62%.
Consider `Cl.Cl.Fc1ccc(N(CCCN2CCN(c3ccccc3)CC2)c2ccc(F)cc2)cc1` [Example 37, N,N-bis(4-fluorophenyl)-4-phenyl-1-piperazinepropanamine dihydrochloride], for which the inhibition at 0.1 µM was about 37%. Further, the “inhibition of 3H-haloperidol binding” value (10 n moles concentration) is “no inhibition”.
Take `Fc1cccc(C2=CCN(CCCN(c3ccccc3)c3ccccc3)CC2)c1.O=C(O)C(=O)O` [Example 40, 4-(3-Fluorophenyl)-1,2,3,6-tetrahydro-N,N-diphenyl-1-pyridinepropanamine ethanedioate]: the inhibition at 0.1 µM is about 23%. For the same molecule, under “10 n moles concentration”, the “inhibition of 3H-haloperidol binding” value is “no inhibition”.
`Cc1cccc(C2CCN(CCCN(c3ccccc3)c3ccccc3)CC2)c1` [Example 41, N,N-diphenyl-4-[3-methylphenyl]-1-piperidinepropanamine butenedioate]: the inhibition at 0.01 µM (10 n moles concentration) was about 25%. Also, the inhibition at 0.1 µM (100 n moles concentration) was about 84%.
On to `Fc1ccc(NC2CCN(CCCN(c3ccccc3)c3ccccc3)CC2)cc1` [Example 42, 4-[(4-Fluorophenyl)amino]-N,N-diphenyl-1-piperidinepropanamine ethanedioate], for which the inhibition at 0.01 µM is about 26% and the inhibition at 0.1 µM is about 90%.
On to `OC(c1ccccc1)C1CCN(CCCN(c2ccccc2)c2ccccc2)CC1` (stereo not drawn) [Example 43, 1-[3-(Diphenylamino)propyl]-alpha-phenyl-4-piperidine methanol.], for which, where the note is “10 n moles concentration”, the “inhibition of 3H-haloperidol binding” value was “no inhibition”. The inhibition at 0.1 µM (100 n moles concentration) is about 18%.
With `O=C(c1ccc(Cl)cc1)C1CCN(CCCN(c2ccc(F)cc2)c2ccc(F)cc2)CC1` [Example 44, [1-[3-[Bis(4-fluorophenyl)amino]propyl]-4-piperidinyl]-(4-chlorophenyl)methanone ethanedioate], the inhibition at 0.01 µM was about 8% and the inhibition at 0.1 µM was about 69%.
As to `c1ccc(N(CCCN2CCC3(CC2)OCCO3)c2ccccc2)cc1` [Example 45, N,N-diphenyl-1,4-dioxo-8-azaspiro[4,5]decane-8-propanamine ethanedioate.], the inhibition at 0.01 µM (10 n moles concentration) was about 10%. Moreover, the inhibition at 0.1 µM (100 n moles concentration) was about 26%.
As for `c1ccc(N(CCCNC2=NC3CCC2CC3)c2ccccc2)cc1` [Example 46, N'-2-azabicyclo[2,2,2]-oct-2-en-3-yl-N,N-diphenyl-1,3-propanediamine], the inhibition at 0.01 µM (10 n moles concentration) was about 3%. The inhibition at 0.1 µM (100 n moles concentration) is about 12%.

(Values after patent US4292321A, “1,3,8-Triazaspirodecane-4-ones, pharmaceutical compositions thereof and method of use thereof” (Warner-Lambert Company, priority 1980, dated 1981).)
